Consider nine compounds from patent publication US11542304B2, “Multimeric bicyclic peptide ligands” (BicycleTx Limited, priority 2018, dated 2023).

Starred links: 1 amine or outer side, 2 acyl side, 3 side chain; linkers in the order of their positions; H or OH if unused. Positions of bridges follow the written chain, without caps; N, C: chain ends. Non-standard residues stand in square brackets, D forms with d. Chains are numbered I, II in the order given. X2 = O=C(CCOCCN(CCOCCC(=O)NCCOCCOCCOCCOCCOCCOCCOCCOCCOCCOCCOCCOCCOCCOCCOCCOCCOCCOCCOCCOCCOCCOCCOCCn1nnc2c1CCC1C(CC2)C1COC(=O)[*:2])CCOCCC(=O)NCCOCCOCCOCCOCCOCCOCCOCCOCCOCCOCCOCCOCCOCCOCCOCCOCCOCCOCCOCCOCCOCCOCCOCCn1nnc2c1CCC1C(CC2)C1COC(=O)[*:3])NCCOCCOCCOCCOCCOCCOCCOCCOCCOCCOCCOCCOCCOCCOCCOCCOCCOCCOCCOCCOCCOCCOCCOCCn1nnc2c1CCC1C(CC2)C1COC(=O)[*:1]; X3 = O=C(CCOCCN(CCOCCC(=O)NCCOCCOCCOCCOCCOCCOCCOCCOCCOCCOCCn1nnc2c1CCC1C(CC2)C1COC(=O)[*:2])CCOCCC(=O)NCCOCCOCCOCCOCCOCCOCCOCCOCCOCCOCCn1nnc2c1CCC1C(CC2)C1COC(=O)[*:3])NCCOCCOCCOCCOCCOCCOCCOCCOCCOCCOCCn1nnc2c1CCC1C(CC2)C1COC(=O)[*:1]; X1 = O=C(CCOCCN(CCOCCC(=O)NCCOCCOCCOCCOCCOCCOCCOCCOCCOCCOCCn1cc(CCC(=O)[*:2])nn1)CCOCCC(=O)NCCOCCOCCOCCOCCOCCOCCOCCOCCOCCOCCn1cc(CCC(=O)[*:3])nn1)NCCOCCOCCOCCOCCOCCOCCOCCOCCOCCOCCn1cc(CCC(=O)[*:1])nn1; TATA = O=C(CC[*:1])N1CN(C(=O)CC[*:2])CN(C(=O)CC[*:3])C1; Nle = CCCC[C@H](N)C(=O)O

Series [1] deals with CD137 (Homo sapiens, UniProt Q07011). Kind of series: CD137 Promega reporter cell activity assay (NF-κB luciferase in Jurkat cells). Conditions: for Average Fold EC50 Improvement relative to CD137L: Average EC50 for CD137L = 14.2 nM; for Average Relative Fold Induction relative to CD137L: Average fold induction for CD137L = 4.0.
Chain of CD137 (Q07011 24-255): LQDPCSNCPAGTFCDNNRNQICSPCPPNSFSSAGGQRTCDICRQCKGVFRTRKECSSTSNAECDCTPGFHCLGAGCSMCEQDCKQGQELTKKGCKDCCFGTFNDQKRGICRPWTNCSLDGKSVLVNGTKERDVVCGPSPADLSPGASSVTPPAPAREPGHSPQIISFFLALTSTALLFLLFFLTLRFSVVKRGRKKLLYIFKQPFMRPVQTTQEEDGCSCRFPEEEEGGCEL
Procedure: CD137 binding multimers were evaluated for CD137 using a Reporter cell activity assay that uses NF-κB luciferase luminescence as a read-out of CD137 activation in Jurkat cells. […] Samples were diluted at concentration expected to give the maximum fold induction and then titrated down in 1/3 dilution series or 1/10 dilution series in a sterile 96 well-plate. […] 50 μl cells were added per well to white cell culture plates.
Cells were co-incubated together with agonists for 6 h at 37° C., 5% CO2. After 6 h Bio-Glo™ was thawed and the assay developed at room-temperature. 75 ul Bio-Glo™ was added per well and incubated for 5-10 min. Luciferase signal was read on a Pherastar plate-reader using MARS program. Data was analysed by transforming the data to x=log (X), then plotting log (agonist) vs. response variable slope (4 parameters) to calculate EC50 values.
Series [2] can be described thus: Pharmacokinetics of Bicycle multimers in CD-1 mice. Conditions: 5 mg/kg IV, male CD-1 mice; FIGS. 5A and 5B.
Procedure: Male CD-1 mice were dosed with 5 mg/kg of each Bicycle multimer formulated in 25 mM Histidine HCl, 10% sucrose pH 7 via tail vein injection. Serial bleeding (about 80 μL blood/time point) was performed via submandibular or saphenous vein at each time point. All blood samples were immediately transferred into prechilled microcentrifuge tubes containing 2 μL K2-EDTA (0.5M) as anti-coagulant and placed on wet ice. Blood samples were immediately processed for plasma by centrifugation at approximately 4° C., 3000 g. The precipitant including internal standard was immediately added into the plasma, mixed well and centrifuged at 12,000 rpm, 4° C. for 10 minutes. The supernatant was transferred into pre-labeled polypropylene microcentrifuge tubes, and then quick-frozen over dry ice. The samples were stored at 70° C. or below as needed until analysis. 7.5 μL of the supernatant samples were directly injected for LC-MS/MS analysis using an Orbitrap Q Exactive in positive ion mode to determine the concentrations of Bicycle multimer. Plasma concentration versus time data were analyzed by non-compartmental approaches using the Phoenix WinNonlin 6.3 software program. C0, Cl, Vdss, T1/2, AUC(0-last), AUC(0-inf), MRT(0-last), MRT(0-inf) and graphs of plasma concentration versus time profile were reported.
The conditions of series [3]: clinical testing, cited from earlier work.

Turning to `CCCC[C@@H]1NC(=O)[C@H](Cc2ccc(O)cc2)NC(=O)[C@@H]2CCCN2C(=O)[C@H](CC(=O)O)NC(=O)[C@H](C)NC(=O)[C@H](Cc2ccccc2)NC(=O)[C@@H]2CSCCC(=O)N3CN(CN(C3)C(=O)CCSC[C@@H](C(=O)N[C@@H](C)C(N)=O)NC1=O)C(=O)CCSC[C@H](NC(=O)[C@H](C)NC(C)=O)C(=O)N[C@@H]([C@@H](C)CC)C(=O)N[C@@H](CCC(=O)O)C(=O)N[C@@H](CCCCNC(=O)OCC1C3CCc4nnn(CCOCCOCCOCCOCCOCCOCCOCCOCCOCCOCCNC(=O)CCOCC(COCCC(=O)NCCOCCOCCOCCOCCOCCOCCOCCOCCOCCOCCn5nnc6c5CCC5C(CC6)C5COC(=O)NCCCC[C@@H]5NC(=O)[C@H](CCC(=O)O)NC(=O)[C@H]([C@@H](C)CC)NC(=O)[C@@H](NC(=O)[C@H](C)NC(C)=O)CSCCC(=O)N6CN7CN(C6)C(=O)CCSC[C@H](NC(=O)[C@H](Cc6ccc(O)cc6)NC(=O)[C@H](CCC(N)=O)NC(=O)CNC5=O)C(=O)N[C@@H](Cc5ccccc5)C(=O)N[C@@H](C)C(=O)N[C@@H](CC(=O)O)C(=O)N5CCC[C@H]5C(=O)N[C@@H](Cc5ccc(O)cc5)C(=O)N[C@@H](CCCC)C(=O)N[C@H](C(=O)N[C@@H](C)C(N)=O)CSCCC7=O)(COCCC(=O)NCCOCCOCCOCCOCCOCCOCCOCCOCCOCCOCCn5nnc6c5CCC5C(CC6)C5COC(=O)NCCCC[C@@H]5NC(=O)[C@H](CCC(=O)O)NC(=O)[C@H]([C@@H](C)CC)NC(=O)[C@@H](NC(=O)[C@H](C)NC(C)=O)CSCCC(=O)N6CN7CN(C6)C(=O)CCSC[C@H](NC(=O)[C@H](Cc6ccc(O)cc6)NC(=O)[C@H](CCC(N)=O)NC(=O)CNC5=O)C(=O)N[C@@H](Cc5ccccc5)C(=O)N[C@@H](C)C(=O)N[C@@H](CC(=O)O)C(=O)N5CCC[C@H]5C(=O)N[C@@H](Cc5ccc(O)cc5)C(=O)N[C@@H](CCCC)C(=O)N[C@H](C(=O)N[C@@H](C)C(N)=O)CSCCC7=O)COCCC(=O)NCCOCCOCCOCCOCCOCCOCCOCCOCCOCCOCCn5nnc6c5CCC5C(CC6)C5COC(=O)NCCCC[C@@H]5NC(=O)[C@H](CCC(=O)O)NC(=O)[C@H]([C@@H](C)CC)NC(=O)[C@@H](NC(=O)[C@H](C)NC(C)=O)CSCCC(=O)N6CN7CN(C6)C(=O)CCSC[C@H](NC(=O)[C@H](Cc6ccc(O)cc6)NC(=O)[C@H](CCC(N)=O)NC(=O)CNC5=O)C(=O)N[C@@H](Cc5ccccc5)C(=O)N[C@@H](C)C(=O)N[C@@H](CC(=O)O)C(=O)N5CCC[C@H]5C(=O)N[C@@H](Cc5ccc(O)cc5)C(=O)N[C@@H](CCCC)C(=O)N[C@H](C(=O)N[C@@H](C)C(N)=O)CSCCC7=O)c4CCC31)C(=O)NCC(=O)N[C@@H](CCC(N)=O)C(=O)N[C@@H](Cc1ccc(O)cc1)C(=O)N2` (some centres unmarked) [BCY8150], in series [1], the “Average Fold EC50 Improvement relative to CD137L” value is given as 4.14 and the “Average Relative Fold Induction relative to CD137L” value was 0.77.
As to “ACIEEGQYCFADPYMCA [BCY592, reference compound]”, the “CD137 agonism / activation in reporter cells (in words)” value in series [1] (FIGS. 1 to 3 and 15) is reported as “no detectable activity”.
Turning to “CD137L: the natural ligand (CD137L) for activation of CD137”, the EC50 in series [1] (read-out: Average EC50, reference substance of Table 4A / 4B) is 14.2 nM. The Average fold induction result in series [1] (reference substance of Table 4A / 4B) is given as “**Average fold induction for CD137L = 4.0”.
For “I: Ac-ACIEEGKYCFADPY[Nle]CA-NH2 / II: Ac-ACIEEGKYCFADPY[Nle]CA-NH2 / III: Ac-ACIEEGKYCFADPY[Nle]CA-NH2 (linker I:2-I:9-I:16, II:2-II:9-II:16, III:2-III:9-III:16 via TATA; linker I:7-II:7-III:7 via X3) [BCY8151]”, in series [1], the “Average Fold EC50 Improvement relative to CD137L” value is recorded as 213.05 and the “Average Relative Fold Induction relative to CD137L” value was 0.49.
In the same order, the values of “I: Ac-ACIEEGQYCKADPY[Nle]CA-NH2 / II: Ac-ACIEEGQYCKADPY[Nle]CA-NH2 / III: Ac-ACIEEGQYCKADPY[Nle]CA-NH2 (linker I:2-I:9-I:16, II:2-II:9-II:16, III:2-III:9-III:16 via TATA; linker I:10-II:10-III:10 via X2) [BCY8146]” are 5.11 and 0.83.
The like results for “I: Ac-ACIEEGQYCKADPY[Nle]CA-NH2 / II: Ac-ACIEEGQYCKADPY[Nle]CA-NH2 / III: Ac-ACIEEGQYCKADPY[Nle]CA-NH2 (linker I:2-I:9-I:16, II:2-II:9-II:16, III:2-III:9-III:16 via TATA; linker I:10-II:10-III:10 via X3) [BCY8145]” were, in that order, 5.93 and 0.95.
“I: Ac-ACIEKGQYCFADPY[Nle]CA-NH2 / II: Ac-ACIEKGQYCFADPY[Nle]CA-NH2 / III: Ac-ACIEKGQYCFADPY[Nle]CA-NH2 (linker I:2-I:9-I:16, II:2-II:9-II:16, III:2-III:9-III:16 via TATA; linker I:5-II:5-III:5 via X1) [BCY7835]”: the “systemic elimination (plasma concentration after IV dosing)” value in series [2] is “retain the property of rapid systemic elimination”. Also, the “Average Relative Fold Induction relative to CD137L” value in series [1] came to 1.04.
In the case of urelumab, in series [3], the “doses at which hepatoxicity was observed” value is not below 1 mg/kg and the single agent activity result is on record as “single agent, partial responses in melanoma”.
For the compound utomilumab, the “dose up to which hepatotoxicity was not observed” value in series [3] (solid tumors) is “up to 5 mg/kg”. The single agent activity result in series [3] is on record as “little or no single agent activity”.

For orientation: EC50 means the concentration that produces a half-maximal response.
